How the values were obtained:
[1] = Ionophoric activity in large unilamellar vesicles containing 95:5 egg phosphatidylcholine and egg phosphatidylglycerol assessed as fluorescence emission at 25 degC after 10 mins by HPTS assay in presence of Na+; type: ADME
[2] = Ionophoric activity in large unilamellar vesicles containing 95:5 egg phosphatidylcholine and egg phosphatidylglycerol assessed as fluorescence emission at 25 degC after 10 mins by HPTS assay in presence of K+; type: ADME
[3] = Ionophoric activity in large unilamellar vesicles containing 95:5 egg phosphatidylcholine and egg phosphatidylglycerol assessed as fluorescence emission at 25 degC after 10 mins by HPTS assay in presence of Li+; type: ADME
[4] = Ionophoric activity in large unilamellar vesicles containing 95:5 egg phosphatidylcholine and egg phosphatidylglycerol assessed as fluorescence emission at 25 degC after 10 mins by HPTS assay in presence of Rb+; type: ADME
[5] = Ionophoric activity in large unilamellar vesicles containing 95:5 egg phosphatidylcholine and egg phosphatidylglycerol assessed as fluorescence emission at 25 degC after 10 mins by HPTS assay in presence of Cs+; type: ADME
[6] = Ionophoric activity in large unilamellar vesicles containing 95:5 egg phosphatidylcholine and egg phosphatidylglycerol assessed as fluorescence emission at 25 degC after 10 mins by HPTS assay in presence of F-; type: ADME
[7] = Ionophoric activity in large unilamellar vesicles containing 95:5 egg phosphatidylcholine and egg phosphatidylglycerol assessed as fluorescence emission at 25 degC after 10 mins by HPTS assay in presence of Cl-; type: ADME
[8] = Ionophoric activity in large unilamellar vesicles containing 95:5 egg phosphatidylcholine and egg phosphatidylglycerol assessed as fluorescence emission at 25 degC after 10 mins by HPTS assay in presence of Br-; type: ADME
[9] = Ionophoric activity in large unilamellar vesicles containing 95:5 egg phosphatidylcholine and egg phosphatidylglycerol assessed as fluorescence emission at 25 degC after 10 mins by HPTS assay in presence of I-; type: ADME
MCF7 = experiment: Cytotoxicity against human MCF7 cells assessed as cell viability after 48 hrs by MTT assay; type: functional, cell-based; conditions: MCF7, 48 h
[10] = Cytotoxicity against human SH-SY5Y cells assessed as cell viability after 48 hrs by MTT assay; type: functional, cell-based
DU-145 = experiment: Cytotoxicity against human DU145 cells assessed as cell viability after 48 hrs by MTT assay; type: functional, cell-based; conditions: DU-145, 48 h
HaCaT = experiment: Cytotoxicity against human HaCaT cells assessed as cell viability after 48 hrs by MTT assay; type: functional, cell-based

Activity [1] | Activity [2] | Activity [3] | Activity [4] | Activity [5] | Activity [6] | Activity [7] | Activity [8] | Activity [9] | Structure (SMILES) | IC50 (MCF7) [µM] | IC50 [10] [µM] | IC50 (DU-145) [µM] | IC50 (HaCaT) [µM]
Active | Active | Active | Active | Active | Active | Active | Active | Active | Nc1nc2c(ncn2C(=O)CCC(=O)OC[C@H]2O[C@H](O[C@H]3O[C@H](CO)[C@@H](O)[C@H](O)[C@H]3O)[C@H](O)[C@@H](O)[C@@H]2O)c(=O)[nH]1 | 1 | 5 | 25 | 80
Not Active | Not Active | – | – | – | – | – | – | – | COCCOCCOCCn1cnc2c(=O)[nH]c(N)nc21 | > 100 | > 100 | > 100 | > 100
– | – | – | – | – | – | – | – | – | CCCCCCCCCCCCCC(=O)O[C@@H]1[C@H](OC(=O)CCCCCCCCCCCCC)[C@@H](COC(=O)CCC(=O)OC[C@H]2O[C@H](O[C@H]3O[C@H](CO)[C@@H](O)[C@H](O)[C@H]3O)[C@H](O)[C@@H](O)[C@@H]2O)O[C@H]1n1cnc2c(=O)[nH]c(N)nc21 | – | 17 | – | –

Reference: ChEMBL document CHEMBL3397025, “Guanine-based amphiphiles: synthesis, ion transport properties and biological activity” (Bioorg Med Chem, 2015)
